The source made the active and inactive calls. The calls are words filed in the database; no cut-off is given here.
Key:
Hepacivirus hominis [1] = experiment: Inhibition of HCV NS5B RNA dependent RNA polymerase activity infected in BHK-NS5B-FRLuc cells at 50 uM incubated for 40 hrs by dual luciferase reporter gene assay relative to control; type: cell-based
[2] = Selectivity index, ratio of CC50 for human Huh7.5 cells to EC50 for HCV genotype 1b infected in Huh7/Rep-Feo1b cells; design: species or system Huh-7
Hepatitis C virus [3] = experiment: Antiviral activity against HCV genotype 1b infected in Huh7/Rep-Feo1b cells assessed as inhibition of viral RNA replication at 50 uM after 48 hrs by luciferase reporter gene assay relative to control; type: functional, Hepacivirus hominis; conditions: Huh-7, 48 h
Hepacivirus hominis [4] = experiment: Inhibition of recombinant HCV NS5B RNA dependent RNA polymerase activity assessed as reduction in [alpha-32P]UTP incorporation using poly(rA)-U12 as template/primer at 50 uM incubated for 1 hr by liquid scintillation counting method relative to control
[5] = Cytotoxicity against hamster BHK cells assessed as cell viability at 50 uM after 40 hrs by luciferase reporter gene assay relative to control; type: cell-based, Mesocricetus auratus; conditions: read-out: Activity
[6] = Selectivity index, ratio of CC50 for human Huh7.5 cells to EC50 for HCV genotype 2a infected in Huh7.5-FGR-JC1-Rluc2A cells; design: species or system Huh-7
Hepatitis C virus [7] = experiment: Antiviral activity against HCV genotype 1b infected in Huh7/Rep-Feo1b cells assessed as inhibition of viral RNA replication after 48 hrs by luciferase reporter gene assay; type: functional, organism-based, Hepacivirus hominis; conditions: Huh-7, 48 h
[8] = Cytotoxicity against human Huh7.5 cells assessed as reduction in cell viability after 48 hrs by MTS assay; type: cell-based, Huh-7
Hepatitis C virus [9] = experiment: Antiviral activity against HCV genotype 2a infected in Huh7.5-FGR-JC1-Rluc2A cells assessed as inhibition of viral RNA replication after 48 hrs by luciferase reporter gene assay; type: functional, organism-based, Hepacivirus hominis
Hepatitis C virus [10] = experiment: Antiviral activity against HCV genotype 2a infected in Huh7.5-FGR-JC1-Rluc2A cells assessed as inhibition of viral RNA replication at 50 uM after 48 hrs by luciferase reporter gene assay relative to control; type: functional, Hepacivirus hominis

| Compound | inhibition (Hepacivirus hominis [4]) | EC50 (Hepatitis C virus [7]) | EC50 (Hepatitis C virus [9]) | inhibition (Hepacivirus hominis [1]) | Ratio CC50/EC50 [2] | inhibition at 50 µM (Hepatitis C virus [3]) | viability at 40 h, 50 µM [5] | Ratio CC50/EC50 [6] | CC50 at 48 h [8] | inhibition at 50 µM (Hepatitis C virus [10]) |
| --- | --- | --- | --- | --- | --- | --- | --- | --- | --- | --- |
| Oc1ccc2c3c(oc2c1)-c1cc(O)c(O)cc1CC3 | inactive | 5.5 µM | 6.1 µM | inactive | 20.9 | 98.6% | ≥ 80% | 18.8 | 115 µM | 96.9% |
| Oc1ccc2c3c(oc2c1)-c1cccc(O)c1CC3 | 38% | 5.9 µM | 2.4 µM | 33.3% | 10.1 | 96.7% | ≥ 80% | 24.7 | 59.5 µM | 99.7% |
| Oc1ccc2c(c1)-c1oc3cc(O)ccc3c1CC2 | 33.1% |  | 6 µM | 36.1% |  | 49.3% | ≥ 80% | 26.1 | 157 µM | 97.8% |

Continued by falling EC50 (Hepatitis C virus [9]), values first:

| inhibition (Hepacivirus hominis [4]) | EC50 (Hepatitis C virus [7]) | EC50 (Hepatitis C virus [9]) | Compound | inhibition (Hepacivirus hominis [1]) | Ratio CC50/EC50 [2] | inhibition at 50 µM (Hepatitis C virus [3]) | viability at 40 h, 50 µM [5] | Ratio CC50/EC50 [6] | CC50 at 48 h [8] | inhibition at 50 µM (Hepatitis C virus [10]) |
| --- | --- | --- | --- | --- | --- | --- | --- | --- | --- | --- |
| inactive | 40.7 µM | 15.3 µM | c1ccc2c(c1)CCc1c-2oc2ccccc12 | inactive | >4.9 | 50.7% | ≥ 80% | >13 | > 200 µM | 86.5% |
| inactive | 13.9 µM | 5.7 µM | Oc1ccc2c3c(oc2c1)-c1ccccc1CC3 | inactive | 7.2 | 90.1% | ≥ 80% | 15.8 | 99.9 µM | 97.2% |
| 38.5% | 27.9 µM | 2.3 µM | Oc1ccc2c(c1)-c1oc3ccccc3c1CC2 | 39.4% | 3.5 | 95.1% | ≥ 80% | 42.1 | 96.8 µM | 98.4% |
| inactive | 12.3 µM | 1.9 µM | Oc1ccc2c(c1)CCc1c-2oc2cc(O)ccc12 | inactive | 6.8 | 98.1% | ≥ 80% | 44.4 | 84.5 µM | 99.6% |
| 36.2% | 19.9 µM | 1.5 µM | COc1ccc2c(c1)CCc1c-2oc2cc(O)ccc12 | 37% | 5.3 | 97.9% | ≥ 80% | 70.6 | 106 µM | 99.8% |

Source: ChEMBL document CHEMBL3779806, “5-Carba-pterocarpens: A new scaffold with anti-HCV activity” (Eur J Med Chem, 2016)
